According to paper PMC9925557, “Anti-inflammatory effects of new human histamine H3 receptor ligands with flavonoid structure on BV-2 neuroinflammation” (Inflammation Research, 2022):

Legend:
BV-2 cells [1] = assay: Griess assay (NO/nitrite level) in LPS-treated BV-2 cells; format: cell-based, murine; conditions: 6.25 μM, 1 h pretreatment, then 1 μg/ml LPS for 24 h
Method: The Griess assay is a colorimetric assay to measure the levels of nitrite (NO2^−) which is one of the primary and stable metabolites of NO. Griess reagent (Sigma-Aldrich, Saint Louis, MO, USA, G4410) was freshly prepared according to the manufacturer's instructions, that is, 1 g was dissolved in ultrapure water and mixed by inversion for about 4 min. For measuring nitric oxide, after an appropriate incubation time, 100 μl of culture medium was transferred to a transparent 96-well plate and mixed with the same volume of Griess reagent. The plate was incubated for 15 min at room temperature and the absorbance was read at 540 nm using the EnSpire microplate reader (PerkinElmer, Massachusetts, USA). Data were analysed by direct comparison based on the average absorbance of LPS treatment, compound treatment or co-treatment with LPS, performed by normalizing treated cells (compound alone or co-treatment with LPS) to LPS-treated cells set as 100%.
(§1) To establish an experimental model of neuroinflammation in vitro, BV-2 cells were cultured in a 96-well plate (2 × 10^4 cells/200 μl/per well) and a 24-well plate (15 × 10^4 cells/500 μl/well) for the MTS assay and the Griess assay or the RT-qPCR experiment, respectively. BV-2 cells were treated for 24 h, 45 h and 69 h with the increasing concentration of LPS (Sigma-Aldrich, Saint Louis, MO, USA, L4391): 0.001; 0.01; 0.1; 1 [μg/ml]. Following LPS stimulation, at each time point, 100 μl of culture medium from each sample was transferred to another plate and mixed with an equal volume of Griess reagent. Simultaneously, on the plate with cells, cell viability was assessed by adding 20 μl of MTS reagent. The cells cultured on a 24-well plate were used for assessing the expression levels of proinflammatory cytokines (IL-1β, IL-6, TNF-α) by RT-qPCR.
Fig. 6 The effect of the compounds tested (E243 and IIIa–IIIc) on nitric oxide (NO) production in BV-2 cells assessed by the Griess assay. BV-2 cells were pretreated for 1 h with indicated compounds at the concentration of 6.25 μM, followed by stimulation with 1 μg/ml LPS for 24 h. Data are expressed as mean ± SEM of two independent experiments, each of which consisted of eight replicates per treatment group and is expressed as a percentage of NO production versus cells treated with LPS (set at 100%). […] Data indicated with ***p < 0.001 (versus vehicle-treated cells) reflect statistically significant differences between the control and experimental groups

human AChE = test system: human AChE; parameters: method as in PMID 31669851; conditions: cited from earlier work
[2] = molecular target: T1, human histamine H1 receptor (Homo sapiens, UniProt P35367); assay: [3H]Pyrilamine radioligand binding, CHO-K1 cells stably expressing hH1R; conditions: for Selectivity Ki (H1R)/Ki (H3R): hH3R over hH1R
T1 construct: expressed in transfected cells; host or cells: CHO-K1
Method: (§2) Radioligand binding studies, using CHO-K1 cells stably expressing the H1R or Sf9 cells transiently expressing the H4R were performed as described previously. [^3H]Pyrilamine (H1R) and [^3H]histamine (H4R) were used as radiolignads. Affinities were determined using at least five different concentrations of tested compounds in triplicate independent experiments.

electric eel AChE = test system: electric eel AChE; parameters: method as in PMID 31669851; conditions: cited from earlier work
[3] = test system: neuroblastoma SH-SY5Y cells; conditions: 1 µM, 24 h pre-treatment; H2O2 (300 μM) and okadaic acid (50 nM); ref 2nd International Conference on Neuroprotection by Drugs, Nutraceuticals and Physical Activity, 9–10 Dec 2021; cited from earlier work
[4] = molecular target: T2, human histamine H4 receptor (Homo sapiens, UniProt Q9H3N8); assay: [3H]Histamine radioligand binding, Sf9 cells transiently expressing hH4R; conditions: for Selectivity Ki (H4R)/Ki (H3R): hH3R over hH4R
T2 construct: expressed in transfected cells; host or cells: Sf9
Method: as §2

equine BuChE = test system: equine BuChE; parameters: method as in PMID 31669851; conditions: cited from earlier work
BV-2 cells [5] = assay: MTS cell viability assay; format: cell-based, murine; conditions: Mus musculus, 24 h exposure, mean ± SD, read-out: IC50 (inhibition of cell viability)
Method: The murine microglial BV-2 cell line was purchased from the Interlab Cell Line Collection (ICLC) cell bank (Genova, Italy). The BV-2 cells were cultured in DMEM/F12 medium (Lonza, BioWhittaker, Walkersville, MD USA, 12-719F) containing 10% of heat-inactivated fetal bovine serum (FBS, Gibco, 10,500–064) in a humidified incubator containing 95% air and 5% CO2 at 37 °C. BV-2 cells were used for experiments at passages 3 to 11. In all experiments, the concentration of FBS was reduced to 5%.
BV-2 cells (2 × 10^4 cells/100 μl/well) were cultured in transparent 96-well plates (TPP, Trasadingen, Switzerland) in DMEM/F12 supplemented with 5% FBS in the presence of dimethylsulfoxide (DMSO ≤ 0.1%, vehicle control, Veh) or increasing doses of tested compounds (0.78 × 10^–6 – 50 × 10^–6 M). Compound treatment was performed for 24 h. After the incubation time, cell viability was examined using an MTS-based [3-(4,5-dimethylthiazol-2-yl)-5-(3-carboxymethoxyphenyl)-2-(4-sulfophenyl)-2 H tetrazolium] CellTiter96® AQueous One Solution Cell Proliferation Assay (Promega, Madison, USA) following the manufacturer’s protocol. Briefly, 20 μl of MTS solution was pipetted into each well containing 100 μl of culture or culture medium without cells (blank control), mixed well and incubated at 37 °C for 55 min. After the appropriate time, the absorbance was measured at 490 nm using the EnSpire microplate reader (PerkinElmer, Massachusetts, USA). IC50 values were calculated with non-linear regression fit to a sigmoidal dose–response curve (log of compound concentration versus normalized response) using GraphPad Prism (v. 4.0.3).
as §1
To avoid the toxic effect of H3R ligands in subsequent studies, an MTS assay was performed to investigate cell viability. BV-2 cells were cultured for 24 h in the presence of an increasing concentration of compounds E243 and IIIa–IIIc (twofold dilutions covered the range from 0.78 × 10^–6 to 50 × 10^–6 M). […]

BV-2 cells [6] = assay: ELISA of pro-inflammatory cytokines released by LPS-activated BV-2 cells; format: cell-based, murine; conditions: for Inhibitory activity on pro-inflammatory cytokine production: LPS-stimulated BV-2 cells, data not shown
Method: The concentrations of IL-1β, IL-6, TNF-α, the main inflammatory cytokines, were analysed using commercial ELISA kits (IL-6 ELISA kit, ADI-900–045, TNF-α ELISA kit, ADI-900–047, Enzo, Mouse IL-1 beta ELISA kit, Invitrogen) according to the manufacturer’s instructions. Briefly, at the end of 24 h of incubation with tested compounds, cell culture plates were centrifuged to remove cell debris from the supernatants. Culture medium was collected in Eppendorf tubes and frozen at −80 °C until further analysis.
Fig. 8 Effect of compound IIIc on the production of proinflammatory cytokines by LPS-activated BV-2 cells.

human H3 receptor = molecular target: T3, human H3 receptor (Homo sapiens, UniProt Q9Y5N1); assay: [3H]Nα-methylhistamine radioligand binding, CHO-K1 cells stably expressing hH3R
T3 construct: expressed in transfected cells; host or cells: CHO-K1
Method: Radioligand binding studies were conducted using CHO-K1 cells stably transfected with the human H3 receptor as we described previously. All assays were carried out in duplicates. [^3H]-N-α-methylhistamine was used as radioligand and (R)(-)-α-methylhistamine was used to define nonspecific binding. Radioactivity was counted in MicroBeta2 scintillation counter (PerkinElmer). Data were fitted to a one-site curve-fitting equation with Prism 6 (GraphPad Software) and Ki values were estimated from the Cheng − Prusoff equation.
Compounds IIIa–IIIc were tested for affinity for human H3R (hH3R) in a radioligand binding assay with N^α-methylhistamine as a radioligand in CHO K1 cells stably expressing hH3R. Results are presented as Ki values with SEM (Table 2). […] However, it is still a very active compound. The affinity for hH3R (stably expressed in HEK293 cells) of compound E243 was recently described.

BV-2 cells [7] = assay: RT-qPCR of pro-inflammatory cytokine mRNA in LPS-activated BV-2 cells; conditions: 6.25 μM, 1 h pretreatment, LPS 1 μg/ml 24 h; on average
[8] = 6.25 μM, 1 h pretreatment, LPS 1 μg/ml 24 h

T2 sequence (Q9H3N8 whole entry): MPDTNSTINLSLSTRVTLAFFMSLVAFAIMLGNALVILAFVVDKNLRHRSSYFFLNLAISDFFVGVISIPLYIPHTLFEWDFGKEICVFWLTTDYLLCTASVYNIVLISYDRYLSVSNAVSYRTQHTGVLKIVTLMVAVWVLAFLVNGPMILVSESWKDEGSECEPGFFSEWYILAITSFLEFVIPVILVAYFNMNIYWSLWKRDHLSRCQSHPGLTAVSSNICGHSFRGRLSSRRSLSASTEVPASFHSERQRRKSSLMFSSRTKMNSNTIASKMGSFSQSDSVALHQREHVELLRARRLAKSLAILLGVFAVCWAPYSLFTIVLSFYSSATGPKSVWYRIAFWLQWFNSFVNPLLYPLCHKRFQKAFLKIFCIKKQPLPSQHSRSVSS
T3 sequence (Q9Y5N1 whole entry): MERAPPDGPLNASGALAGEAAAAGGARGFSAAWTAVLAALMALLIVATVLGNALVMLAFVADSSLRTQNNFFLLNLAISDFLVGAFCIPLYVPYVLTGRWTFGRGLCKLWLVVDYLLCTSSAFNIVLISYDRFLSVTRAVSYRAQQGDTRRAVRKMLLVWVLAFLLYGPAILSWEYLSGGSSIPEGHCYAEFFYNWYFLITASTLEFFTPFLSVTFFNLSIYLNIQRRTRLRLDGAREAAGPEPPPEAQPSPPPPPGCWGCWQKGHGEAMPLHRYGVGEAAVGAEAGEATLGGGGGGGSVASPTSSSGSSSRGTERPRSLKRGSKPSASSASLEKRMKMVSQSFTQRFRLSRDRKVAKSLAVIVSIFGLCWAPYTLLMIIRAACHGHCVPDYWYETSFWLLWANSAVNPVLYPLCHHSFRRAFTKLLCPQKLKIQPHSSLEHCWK
T1 sequence (P35367 whole entry): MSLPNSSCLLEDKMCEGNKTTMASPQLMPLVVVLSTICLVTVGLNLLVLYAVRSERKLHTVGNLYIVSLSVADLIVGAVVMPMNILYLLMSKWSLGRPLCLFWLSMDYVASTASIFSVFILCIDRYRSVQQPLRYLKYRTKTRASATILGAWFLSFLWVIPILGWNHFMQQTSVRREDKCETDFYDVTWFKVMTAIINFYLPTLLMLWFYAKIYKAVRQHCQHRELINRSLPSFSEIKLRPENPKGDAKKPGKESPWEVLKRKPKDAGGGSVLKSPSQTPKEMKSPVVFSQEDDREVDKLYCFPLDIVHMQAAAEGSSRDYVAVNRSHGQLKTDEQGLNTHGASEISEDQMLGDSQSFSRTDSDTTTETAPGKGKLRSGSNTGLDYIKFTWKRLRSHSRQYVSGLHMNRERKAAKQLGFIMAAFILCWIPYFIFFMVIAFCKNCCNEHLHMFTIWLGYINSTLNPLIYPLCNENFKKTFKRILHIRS

Cc1ccc2oc(-c3ccc(OCCCCCCN4CCCCC4)cc3)cc(=O)c2c1 [Compound E243]
Reduction of NO level compared to LPS treated cells (BV-2 cells [1]): ~30% | IC50 (human AChE): 360 nM | Ki [2]: 1310 ± 128 nM | Selectivity Ki (H1R)/Ki (H3R) [2]: > 5 | IC50 (electric eel AChE): 501 nM | Prevention of ROS production, times compared to neurotoxin-treated cells [3]: ~2 times | Ki [4]: 4440 nM | Selectivity Ki (H4R)/Ki (H3R) [4]: > 19 | IC50 (equine BuChE): 758 nM | IC50 (BV-2 cells [5]): 53500 ± 5560 nM

COc1ccc(/C=C/C(=O)c2ccc(OCCCN3CCCCC3)cc2)cc1.Cl [IIIa, (E)-3-(4-Methoxyphenyl)-1-(4-(3-(piperidin-1-yl)propoxy)phenyl)prop-2-en-1-one hydrogen chloride]
Reduction of NO level compared to LPS treated cells (BV-2 cells [1]): ~30% | Inhibitory activity on pro-inflammatory cytokine production (BV-2 cells [6]): have not shown inhibitory activity | Ki (human H3 receptor): 14 ± 0.2 nM | melting point: 174 to 177 °C | IC50 (BV-2 cells [5]): 21200 ± 1980 nM

COc1ccc(/C=C/C(=O)c2ccc(OCCCN3CCCCC3)cc2)cc1OC.Cl [IIIb, (E)-3-(3,4-Dimethoxyphenyl)-1-(4-(3-(piperidin-1-yl)propoxy)phenyl)prop-2-en-1-one hydrogen chloride]
Reduction of NO level compared to LPS treated cells (BV-2 cells [1]): ~30% | Inhibitory activity on pro-inflammatory cytokine production (BV-2 cells [6]): have not shown inhibitory activity | Ki (human H3 receptor): 9.6 ± 0.2 nM | melting point: 173 to 176 °C | Ki [2]: 1080 nM | Selectivity Ki (H1R)/Ki (H3R) [2]: > 112 | Ki [4]: 12500 nM | Selectivity Ki (H4R)/Ki (H3R) [4]: > 1300 | IC50 (BV-2 cells [5]): 26700 ± 3480 nM

COc1cc(/C=C/C(=O)c2ccc(OCCCN3CCCCC3)cc2)cc(OC)c1OC.Cl [IIIc, (E)-3-(3,4,5-Trimethoxyphenyl)-1-(4-(3-(piperidin-1-yl)propoxy)phenyl)prop-2-en-1-one hydrogen chloride]
Reduction of NO level compared to LPS treated cells (BV-2 cells [1]): 61% | Release of IL-1β compared to LPS-stimulated BV-2 cells (BV-2 cells [6]; [8]): significantly lower | Release of IL-6 compared to LPS-stimulated BV-2 cells (BV-2 cells [6]; [8]): significantly lower | Release of TNF-α compared to LPS-stimulated BV-2 cells (BV-2 cells [6]; [8]): significantly lower | Ki (human H3 receptor): 24 ± 1.1 nM | Ki [2]: 2700 nM | Selectivity Ki (H1R)/Ki (H3R) [2]: > 112 | IL-1β mRNA level, times lower than induced by LPS alone (BV-2 cells [7]): ~2 times | TNF-α mRNA level, times lower than induced by LPS alone (BV-2 cells [7]): ~3 times | Ki [4]: 2820 nM | Selectivity Ki (H4R)/Ki (H3R) [4]: > 117 | IC50 (BV-2 cells [5]): 11300 ± 3260 nM
